According to patent publication US20120211373A1, “MICROFLUIDIC SYSTEM FOR MEASURING CELL BARRIER FUNCTION” (THE REGENTS OF THE UNIVERSITY OF MICHIGAN, priority 2011, published 2012):

What was measured:
b.End3 monolayers = assay: Paracellular permeability across b.End3 monolayers in transwells and layered microfluidic devices
Protocol: The permeability of [^14C]-mannitol as a function of days across b.End3 cells cultured in transwells and layered microfluidic channels was measured. […] Consequently, mannitol has been routinely used to assess the paracellular permeability of epithelial and endothelial monolayers.
Permeability experiments were performed at 3, 6, 9, 12, 15, 18, and 21 days in culture for all three marker molecules with five replicates for both the transwells and the layered microfluidic devices. Briefly, cells grown in both the transwells and the layered microfluidic devices under static condition were removed from the incubator and washed twice by replacing culture medium with PBS solution. PBS solutions were then aspirated and replaced by the designated solution with radioactively labeled marker molecules at the apical (top) compartment. All transwells and layered microfluidic devices were then placed onto the shaker at 100 rpm inside the incubator at 37° C., 95% air, and 5% CO2 for a total of 60 minutes. At every 10 minute interval, the transwells and the layered microfluidic devices were taken out of the incubator; the PBS solutions from the basolateral compartments were collected and replaced by fresh PBS solutions. At the end of the 1 hour incubation time, the solutions in both the apical and basolateral compartments were collected. All the samples collected during the experiments were measured using liquid scintillation counter which evaluates the radioactivity of each sample in the unit of count per minute (CPM). CPMs from all samples are then converted into concentration using the standard dilution scheme.
The permeability of a given molecule across the monolayer was calculated by suing a derived form of a differential equation based on Fick's Law: […]
The unit of measurement cm/s for permeability coefficient is commonly used.

b.END.3 cell monolayer = assay: TEER / impedance of b.END.3 cell monolayer after chemical treatment in microfluidic chip; type: cell-based, mouse
Protocol: Cell Seeding and Culture. Epithelial (MDCK-2) and endothelial (b.END.3) cell lines were selected because they offered well characterized and accepted TEER values to compare with the experimental results. […] All cell lines were cultured in endothelial growth media (DMEM with 10% fetal bovine serum and 1% penicillin/streptomycin) prior to seeding in the microfluidic chip. The microfluidic chip was exposed to plasma oxygen for 5 min to make hydrophilic. Prior to cell seeding, fibronectin solution (Invitrogen) at a concentration of 100 μg/mL in phosphate buffered saline (PBS) was injected into the upper (endothelial) channel to promote cell adhesion. The lower channel was preloaded with growth media. […]
Resolving TEER from Circuit Model. In order to resolve the TEER value from the experimental impedance spectra, the control impedance spectra (taken from the same chip just before cell seeding) was subtracted from the measured impedance spectra (with cells) to eliminate the effect from electrolyte, membrane, and electrode-electrolyte interfaces and simplify the analysis. […]

Row | Compound | lower permeability in layered microfluidic channels compared to transwells (b.End3 monolayers; Example 2, b.End3, as a function of days in culture (FIG. 11)) [fold] | lower permeability across b.End3 monolayers in layered microfluidic devices compared to transwells (b.End3 monolayers; Example 5, after 9 days in culture (FIG. 11A)) [fold] | permeability relative to the large markers in layered microfluidic devices (size selectivity) (b.End3 monolayers; day 3 and day 6 in culture (FIG. 11E)) | impedance of the entire system following treatment (b.END.3 cell monolayer; all frequency points, 30 min, 0.1% in DMEM) | TEER (paracellular resistance) after treatment (b.END.3 cell monolayer; b.END.3 monolayer treated 30 min with 0.1% in DMEM, before treatment 161.51±0.755 Ωcm^2)
1 | OC[C@@H](O)[C@@H](O)[C@H](O)[C@H](O)CO [[^14C]-mannitol, [^14C]-D-Mannitol] | 15 | 10 | higher permeability |  | 
2 | TritonX-100 |  |  |  | decreased significantly | 39.73±1.925 Ωcm^2
